Measured values from BindingDB's records for doi:10.7270/Q2765CSM (Burnham Center For Chemical Genomics, 2011).

Target: T1, Hexokinase-1 (Homo sapiens, UniProt P19367)
T1 sequence (P19367 whole entry): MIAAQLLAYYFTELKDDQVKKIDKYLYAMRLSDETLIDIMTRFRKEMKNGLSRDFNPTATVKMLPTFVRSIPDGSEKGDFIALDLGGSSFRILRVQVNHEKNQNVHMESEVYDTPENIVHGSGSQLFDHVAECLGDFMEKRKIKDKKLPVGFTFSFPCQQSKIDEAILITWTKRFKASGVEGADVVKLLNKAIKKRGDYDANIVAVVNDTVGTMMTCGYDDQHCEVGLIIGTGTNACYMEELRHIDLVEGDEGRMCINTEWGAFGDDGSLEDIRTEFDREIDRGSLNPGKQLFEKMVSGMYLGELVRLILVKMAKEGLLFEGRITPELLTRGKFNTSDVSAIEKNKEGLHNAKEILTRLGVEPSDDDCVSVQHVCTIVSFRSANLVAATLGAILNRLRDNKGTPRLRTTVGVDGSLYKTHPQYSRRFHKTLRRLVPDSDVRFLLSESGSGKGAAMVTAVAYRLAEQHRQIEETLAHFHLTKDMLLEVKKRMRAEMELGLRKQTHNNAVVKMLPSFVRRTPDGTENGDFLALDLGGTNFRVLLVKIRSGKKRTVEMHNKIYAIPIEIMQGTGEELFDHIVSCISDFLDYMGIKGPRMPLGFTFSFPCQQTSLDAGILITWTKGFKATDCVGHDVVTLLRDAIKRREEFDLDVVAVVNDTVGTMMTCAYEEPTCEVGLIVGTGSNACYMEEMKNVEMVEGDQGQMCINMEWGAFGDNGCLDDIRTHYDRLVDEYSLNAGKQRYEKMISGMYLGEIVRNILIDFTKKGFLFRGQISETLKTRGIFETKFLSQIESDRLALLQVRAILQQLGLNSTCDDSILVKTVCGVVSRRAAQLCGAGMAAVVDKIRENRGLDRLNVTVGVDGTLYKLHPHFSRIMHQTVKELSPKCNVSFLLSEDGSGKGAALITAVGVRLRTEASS
Test: HK1 enzyme activation by HKDC1 hits – biochemical, selectivity assay for HKDC1 activator project, dose response (AID 504762)

With `CC(C)(C)c1nnc(N=NCc2cc(Br)ccc2O)n(N)c1=O` [4-azanyl-3-[2-[(E)-(3-bromanyl-6-oxidanylidene-cyclohexa-2,4-dien-1-ylidene)methyl]hydrazinyl]-6-tert-butyl-1,2,4-triazin-5-one] the EC50 was greater than 80 µM.
In the case of `CC(N=Nc1nc2ccccc2o1)c1cc2ccccc2cn1` (centres undefined), the EC50 is reported as greater than 80 µM.
In the case of `O=C1C(=C2C(=O)c3ccccc3C2=O)Nc2ccccc21` [MLS000071738], the EC50 is reported as 37.1 µM.
Work on `Cc1ccc2c(C)c3ccc4ccccc4c3c[n+]2c1` [MLS002701915] yielded an EC50 of 5.2 µM.
`Cc1[nH]n(-c2ccccc2)c(=O)c1CN=Nc1nncc(-c2ccccc2)n1` [(4E)-5-methyl-2-phenyl-4-[[(5-phenyl-1,2,4-triazin-3-yl)hydrazo]methylidene]-3-pyrazolone] was tested, and the EC50 was greater than 80 µM.
`Oc1c(Cl)c(N=Cc2cccnc2)c(O)c2ccccc12` [MLS001195521] showed an EC50 of 30.8 µM.
For `CCCOC1=CC(=O)C(C=NNC(=S)Nc2ccccc2[N+](=O)[O-])C=C1` (centres undefined) [1-(2-nitrophenyl)-3-[[(E)-(6-oxo-4-propoxy-1-cyclohexa-2,4-dienylidene)methyl]amino]thiourea], the EC50 was greater than 80 µM.
`CC(=O)Oc1cccc2c(O)c3c(c(O)c12)CC=CC3OC(C)=O` (centres undefined) [SMR001574207] gave an EC50 of 34.1 µM.
Work on `Nn1cnnc1N=NCc1cc(Br)cc(Br)c1O` yielded an EC50 of 42.3 µM.
